Active and inactive are the calls of the source.
Assays:
[1] = molecular target: Intestinal-type alkaline phosphatase (Homo sapiens, UniProt P09923); test: Dose Response confirmation of uHTS hits from a small molecule inhibitors of human intestinal alkaline phosphatase via a luminescent assay. [Related pubchem assays (depositor defined):AID2544, AID2574]; format: functional
[2] = Luminescence Cell-Based Dose Response HTS to Identify Activators of Luciferase Translation or Activity in H4 […] Cells. [Related pubchem assays: 1829 (Project Summary), 1814 (Primary HTS)]; format: functional
[3] = molecular target: T1, Kappa-type opioid receptor (Homo sapiens, UniProt P41145); format: functional
T1 sequence (P41145 whole entry): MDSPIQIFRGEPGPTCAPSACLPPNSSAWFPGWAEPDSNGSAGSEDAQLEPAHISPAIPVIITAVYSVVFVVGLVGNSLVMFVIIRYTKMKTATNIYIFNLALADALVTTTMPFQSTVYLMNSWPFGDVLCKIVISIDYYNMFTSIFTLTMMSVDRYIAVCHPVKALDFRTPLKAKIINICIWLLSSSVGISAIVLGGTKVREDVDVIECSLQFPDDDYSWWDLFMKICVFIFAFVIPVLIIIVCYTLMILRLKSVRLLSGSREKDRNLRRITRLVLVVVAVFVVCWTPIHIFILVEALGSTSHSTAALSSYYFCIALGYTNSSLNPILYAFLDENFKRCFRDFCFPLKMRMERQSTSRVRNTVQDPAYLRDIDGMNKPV

[4] = molecular target: Beta-galactosidase (Escherichia coli, UniProt Q8VNN2); format: functional
[5] = molecular target: T1, Kappa-type opioid receptor; format: functional; remark: listed apart in the source
[6] = inhibitors of intracellular T. cruzi replication, confirmation, NIH3T3 host cells, beta-gal luminescence (AID 2044); format: functional, cell-based;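 also: intracellular parasites grown in NIH/3T3 mouse fibroblasts as host cells; luminescent beta-galactosidase reporter signal from transgenic T. cruzi replicating inside host cells; inhibitors lower the luminescence signal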
[7] = tested on: INS1; test: beta cell apoptosis inhibitors, cytokine rescue, dose response, luminescence, retest (AID 449756); format: functional, cell-based; conditions: Rattus norvegicus, INS1;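 also: cell death triggered by IL-1 beta plus TNF-alpha plus IFN-gamma mixture; protective hits raise ATP signal compared with cytokine alone wells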
[8] = Luminescence Cell-Based Dose Response HTS to Identify Inhibitors of 5'UTR Stem-Loop Driven Prion Protein mRNA Translation in H4 Neuroglioblastoma Cells. [Related pubchem assays: 1827 (Project Summary), 1813 (Primary HTS)]; format: functional
[9] = inhibitors of SNCA 5'UTR-driven reporter translation, confirmation, H4 neuroglioma cells, luminescence (AID 1988); format: functional, cell-based
[10] = cytotoxicity toward NIH3T3 fibroblasts, dose response, counter-screen, cell-based, ATP luminescence, mouse fibroblasts (AID 2010); format: functional;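 also: cells exposed to compound for about 90 hours before reading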
[11] = cells; format: functional
[12] = THP-1 cell cytotoxicity, dose response, cytotoxicity control for non-replicating M. tuberculosis project (AID 489025); format: functional
[13] = HepG2 cell cytotoxicity, dose response, cytotoxicity control for non-replicating M. tuberculosis project (AID 489018); format: functional; conditions: Mycobacterium tuberculosis
[14] = molecular target: T2, Coagulation factor XII (Homo sapiens, UniProt P00748); test: FXIIa inhibitor potency, concentration-response, biochemical (AID 716); format: functional
T2 sequence (P00748 whole entry): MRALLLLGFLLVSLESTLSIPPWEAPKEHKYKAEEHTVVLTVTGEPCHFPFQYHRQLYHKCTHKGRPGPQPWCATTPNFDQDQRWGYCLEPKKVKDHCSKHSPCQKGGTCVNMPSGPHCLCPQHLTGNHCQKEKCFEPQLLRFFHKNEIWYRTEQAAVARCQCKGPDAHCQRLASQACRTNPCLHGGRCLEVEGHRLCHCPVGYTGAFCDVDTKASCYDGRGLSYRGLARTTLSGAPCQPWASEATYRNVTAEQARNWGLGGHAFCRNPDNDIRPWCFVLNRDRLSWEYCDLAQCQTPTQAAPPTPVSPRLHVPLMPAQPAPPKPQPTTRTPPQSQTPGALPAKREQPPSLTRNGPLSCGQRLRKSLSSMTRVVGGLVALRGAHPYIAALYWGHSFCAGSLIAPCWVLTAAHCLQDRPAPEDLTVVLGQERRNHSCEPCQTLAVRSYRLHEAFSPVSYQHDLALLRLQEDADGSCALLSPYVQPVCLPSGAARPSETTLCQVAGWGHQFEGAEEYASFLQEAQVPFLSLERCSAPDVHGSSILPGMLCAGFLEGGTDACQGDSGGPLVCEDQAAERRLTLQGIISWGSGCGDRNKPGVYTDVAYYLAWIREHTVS

[15] = molecular target: G-protein coupled receptor 55 (Homo sapiens, UniProt Q9Y2T6); test: GPR55 antagonists blocking LPI-driven arrestin recruitment, primary screen, imaging, U2OS, beta-arrestin-GFP, LPI agonist (AID 2013); format: functional;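 also: antagonist potency measured as reduced agonist-driven arrestin aggregation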
Chain of G-protein coupled receptor 55 (Q9Y2T6 whole entry): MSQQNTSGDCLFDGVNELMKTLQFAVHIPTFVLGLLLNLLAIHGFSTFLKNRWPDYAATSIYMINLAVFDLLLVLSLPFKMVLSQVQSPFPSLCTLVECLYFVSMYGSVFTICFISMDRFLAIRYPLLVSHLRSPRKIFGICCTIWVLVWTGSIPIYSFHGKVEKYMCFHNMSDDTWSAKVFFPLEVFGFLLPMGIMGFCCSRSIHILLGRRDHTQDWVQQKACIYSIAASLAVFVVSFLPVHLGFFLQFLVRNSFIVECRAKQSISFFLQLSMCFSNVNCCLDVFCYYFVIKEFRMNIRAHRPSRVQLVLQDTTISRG

[16] = molecular target: Voltage-dependent T-type calcium channel subunit alpha-1H (Homo sapiens, UniProt O95180); format: functional;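 also: channel activity triggered by adding a high calcium stimulation buffer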
Chain of Voltage-dependent T-type calcium channel subunit alpha-1H (O95180 whole entry): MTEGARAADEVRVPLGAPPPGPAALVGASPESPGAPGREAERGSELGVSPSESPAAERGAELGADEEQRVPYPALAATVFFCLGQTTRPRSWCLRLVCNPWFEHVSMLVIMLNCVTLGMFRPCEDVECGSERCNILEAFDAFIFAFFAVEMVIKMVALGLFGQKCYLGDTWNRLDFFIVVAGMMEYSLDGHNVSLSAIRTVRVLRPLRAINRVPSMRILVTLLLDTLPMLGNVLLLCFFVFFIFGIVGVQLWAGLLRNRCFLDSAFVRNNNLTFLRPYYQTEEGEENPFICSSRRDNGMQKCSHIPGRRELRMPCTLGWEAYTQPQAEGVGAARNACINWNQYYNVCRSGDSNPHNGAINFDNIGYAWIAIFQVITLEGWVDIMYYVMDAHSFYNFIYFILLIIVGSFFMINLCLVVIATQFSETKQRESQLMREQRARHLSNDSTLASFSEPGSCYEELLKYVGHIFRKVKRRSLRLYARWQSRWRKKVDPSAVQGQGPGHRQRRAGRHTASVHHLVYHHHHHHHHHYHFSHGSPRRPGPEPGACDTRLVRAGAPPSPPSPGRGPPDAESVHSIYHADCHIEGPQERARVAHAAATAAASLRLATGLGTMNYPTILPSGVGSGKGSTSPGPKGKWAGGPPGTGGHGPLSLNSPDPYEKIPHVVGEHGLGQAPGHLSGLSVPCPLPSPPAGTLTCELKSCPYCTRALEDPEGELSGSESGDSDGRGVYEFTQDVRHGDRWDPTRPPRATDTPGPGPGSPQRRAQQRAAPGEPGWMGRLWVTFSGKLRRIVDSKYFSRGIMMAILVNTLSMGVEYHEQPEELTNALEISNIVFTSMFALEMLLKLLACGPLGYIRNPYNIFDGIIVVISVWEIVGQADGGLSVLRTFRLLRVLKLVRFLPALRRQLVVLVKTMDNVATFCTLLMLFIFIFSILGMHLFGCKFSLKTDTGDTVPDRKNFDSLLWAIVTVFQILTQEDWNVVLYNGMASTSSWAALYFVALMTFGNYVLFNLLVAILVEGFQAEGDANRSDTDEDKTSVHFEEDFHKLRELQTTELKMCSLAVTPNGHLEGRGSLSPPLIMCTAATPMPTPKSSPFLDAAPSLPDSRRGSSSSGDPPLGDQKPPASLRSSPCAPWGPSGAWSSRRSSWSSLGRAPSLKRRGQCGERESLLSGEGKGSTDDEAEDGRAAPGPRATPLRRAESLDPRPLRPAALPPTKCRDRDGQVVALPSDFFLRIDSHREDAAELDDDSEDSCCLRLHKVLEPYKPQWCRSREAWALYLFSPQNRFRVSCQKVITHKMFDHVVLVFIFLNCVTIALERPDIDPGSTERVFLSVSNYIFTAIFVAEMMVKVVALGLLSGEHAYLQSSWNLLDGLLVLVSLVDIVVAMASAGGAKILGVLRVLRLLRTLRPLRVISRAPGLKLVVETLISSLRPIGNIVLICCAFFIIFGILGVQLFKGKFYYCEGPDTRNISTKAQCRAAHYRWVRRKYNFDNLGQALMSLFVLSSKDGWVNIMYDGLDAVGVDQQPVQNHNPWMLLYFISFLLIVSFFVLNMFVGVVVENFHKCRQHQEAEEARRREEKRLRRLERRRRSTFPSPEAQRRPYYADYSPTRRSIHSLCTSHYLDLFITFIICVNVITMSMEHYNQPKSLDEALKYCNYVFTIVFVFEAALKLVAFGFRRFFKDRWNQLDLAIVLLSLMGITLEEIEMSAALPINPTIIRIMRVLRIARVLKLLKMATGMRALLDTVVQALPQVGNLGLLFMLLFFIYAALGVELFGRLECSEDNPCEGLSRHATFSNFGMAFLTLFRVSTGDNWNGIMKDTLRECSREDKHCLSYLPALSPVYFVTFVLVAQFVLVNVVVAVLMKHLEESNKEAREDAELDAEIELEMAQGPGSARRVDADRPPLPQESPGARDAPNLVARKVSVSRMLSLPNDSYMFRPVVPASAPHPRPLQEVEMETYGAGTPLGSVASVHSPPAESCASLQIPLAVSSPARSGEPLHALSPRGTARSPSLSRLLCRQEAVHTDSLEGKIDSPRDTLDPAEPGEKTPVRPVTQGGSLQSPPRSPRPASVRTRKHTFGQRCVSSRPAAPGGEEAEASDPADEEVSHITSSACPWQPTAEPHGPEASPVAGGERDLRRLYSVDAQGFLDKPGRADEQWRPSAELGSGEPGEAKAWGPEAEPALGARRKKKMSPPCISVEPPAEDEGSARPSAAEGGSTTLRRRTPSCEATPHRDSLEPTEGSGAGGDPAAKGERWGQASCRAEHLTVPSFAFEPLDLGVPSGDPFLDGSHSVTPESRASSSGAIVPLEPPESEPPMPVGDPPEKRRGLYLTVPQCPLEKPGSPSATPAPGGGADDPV

[17] = molecular target: Luciferin 4-monooxygenase (Photinus pyralis, UniProt P08659); test: firefly luciferase enzyme inhibitors, dose response, biochemical, luminescence (AID 1891)
[18] = Luminescence Cell-Based Dose Confirmation HTS to Identify Inhibitors of Platelet Dense Granule Release. [Related pubchem assays: 1663 (Primary HTS), 1678 (Summary of Project)]; format: functional
[19] = ZM109 Env clade C HIV-1 fusion inhibitors, dose response, HeLa effector, CEM target cells, luciferase, cherry-pick (AID 652058); format: functional, cell-based
[20] = tested on: Streptococcus; test: Group A Streptococcus viability loss, dose response, counter-screen for streptokinase expression inhibitor project, luminescence, BacTiterGlo (AID 1915); format: functional, organism-based;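 also: potency for reduction of bacterial viability or growth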
[21] = tested on: Streptococcus sp. 'group A'; test: growth inhibition of control SK(-) GAS strain, dose response, counter-screen for streptokinase expression inhibitor project, luminescence, kanamycin, BacTiterGlo, confirmation (AID 1900); format: functional, organism-based
[22] = molecular target: T3, SUMO-activating enzyme (Homo sapiens, UniProt Q9UBT2); test: SUMOylation inhibitor hit validation, confirmation, SUMOylation inhibitor project, biochemical, AlphaScreen (AID 2018); format: functional
T3 sequence (Q9UBE0 whole entry): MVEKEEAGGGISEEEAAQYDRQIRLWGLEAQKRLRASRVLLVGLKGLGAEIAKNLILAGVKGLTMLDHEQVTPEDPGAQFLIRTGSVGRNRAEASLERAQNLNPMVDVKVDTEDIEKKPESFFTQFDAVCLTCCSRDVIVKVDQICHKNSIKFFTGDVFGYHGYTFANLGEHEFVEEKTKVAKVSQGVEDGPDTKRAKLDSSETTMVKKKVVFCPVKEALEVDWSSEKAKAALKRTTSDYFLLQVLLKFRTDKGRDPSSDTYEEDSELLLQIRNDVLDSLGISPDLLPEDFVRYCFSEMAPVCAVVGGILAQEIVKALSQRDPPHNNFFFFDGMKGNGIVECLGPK
T3 sequence (Q9UBT2 whole entry): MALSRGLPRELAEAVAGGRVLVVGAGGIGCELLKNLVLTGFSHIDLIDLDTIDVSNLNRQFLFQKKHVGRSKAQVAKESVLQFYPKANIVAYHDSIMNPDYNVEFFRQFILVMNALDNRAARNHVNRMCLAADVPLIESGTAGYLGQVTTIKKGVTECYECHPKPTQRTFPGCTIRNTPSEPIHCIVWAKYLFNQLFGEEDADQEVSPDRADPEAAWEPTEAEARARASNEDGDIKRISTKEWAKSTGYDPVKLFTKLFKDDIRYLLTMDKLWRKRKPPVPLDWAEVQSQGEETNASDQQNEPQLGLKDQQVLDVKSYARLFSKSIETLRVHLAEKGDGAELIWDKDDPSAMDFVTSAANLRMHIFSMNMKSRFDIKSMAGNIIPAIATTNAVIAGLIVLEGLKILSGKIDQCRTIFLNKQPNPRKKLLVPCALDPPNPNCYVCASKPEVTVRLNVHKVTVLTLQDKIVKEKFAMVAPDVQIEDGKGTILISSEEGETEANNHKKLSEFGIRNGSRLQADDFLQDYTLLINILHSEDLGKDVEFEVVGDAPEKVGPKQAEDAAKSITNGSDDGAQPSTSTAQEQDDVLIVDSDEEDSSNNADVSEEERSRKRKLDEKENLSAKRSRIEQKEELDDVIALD

[23] = molecular target: T3, SUMO-activating enzyme; test: inhibitors of in vitro SUMOylation cascade, primary screen, biochemical, HTRF, uHTS (AID 2006); format: protein-complex assay
[24] = off-target signal loss in HeLa-CEM21 co-culture – HeLa F-luc CTL cells, cherry-picked, counter-screen for HIV-1 Env fusion inhibitor project, dose response (AID 652040); format: functional, cell-based;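 also: potency for signal decrease marking cytotoxic or nonspecific inhibition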
[25] = inhibitors of HIV Env-driven cell fusion, dose response, cherry-pick (AID 652057); format: functional, cell-based
[26] = inhibitors of firefly luciferase expression or activity, dose response, H4 neuroglioma cells, luminescence (AID 1990); format: functional, cell-based
[27] = inhibitors of clade B AD8 Env fusion, dose response, cell-based, cherry-pick (AID 652062); format: functional;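 also: luciferase signal from cell-cell fusion driven by HIV-1 clade B AD8 Env; potency is for inhibitors of fusion seen as a drop in luminescence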
[28] = molecular target: T4, Hexokinase HKDC1 (Homo sapiens, UniProt Q2TB90); test: HKDC1 hexokinase inhibitors, dose response, biochemical, W721R variant (AID 504729); format: functional
T4 sequence (Q2TB90 whole entry): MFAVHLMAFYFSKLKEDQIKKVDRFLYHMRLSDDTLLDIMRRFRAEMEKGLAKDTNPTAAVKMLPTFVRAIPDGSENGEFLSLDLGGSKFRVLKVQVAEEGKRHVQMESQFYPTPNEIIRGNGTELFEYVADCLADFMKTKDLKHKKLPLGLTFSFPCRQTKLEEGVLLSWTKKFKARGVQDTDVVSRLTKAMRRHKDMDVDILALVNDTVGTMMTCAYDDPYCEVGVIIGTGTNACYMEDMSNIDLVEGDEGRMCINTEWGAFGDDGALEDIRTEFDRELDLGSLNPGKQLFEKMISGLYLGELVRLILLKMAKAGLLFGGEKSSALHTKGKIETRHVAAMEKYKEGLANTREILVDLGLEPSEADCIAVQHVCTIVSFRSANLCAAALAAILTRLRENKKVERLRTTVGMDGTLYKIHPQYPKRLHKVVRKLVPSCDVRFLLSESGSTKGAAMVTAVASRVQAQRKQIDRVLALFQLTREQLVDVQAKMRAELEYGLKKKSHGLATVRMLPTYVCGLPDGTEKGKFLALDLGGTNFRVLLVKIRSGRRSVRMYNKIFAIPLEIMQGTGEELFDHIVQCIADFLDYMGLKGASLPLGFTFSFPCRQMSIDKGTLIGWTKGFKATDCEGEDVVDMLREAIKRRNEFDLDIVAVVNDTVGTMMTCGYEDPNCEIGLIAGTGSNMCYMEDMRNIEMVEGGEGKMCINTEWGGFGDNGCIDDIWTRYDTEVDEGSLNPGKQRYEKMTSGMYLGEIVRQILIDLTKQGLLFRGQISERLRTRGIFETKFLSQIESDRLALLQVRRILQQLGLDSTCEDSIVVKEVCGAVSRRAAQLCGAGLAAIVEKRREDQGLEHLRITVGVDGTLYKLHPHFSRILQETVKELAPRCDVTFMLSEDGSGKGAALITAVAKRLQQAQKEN

[29] = molecular target: Lysosomal acid glucosylceramidase (Homo sapiens, UniProt P04062); test: Dose response cell-based high throughput screening assay to identify enhancers of beta-glucosidase activity. [Related pubchem assays: 784 ]; format: functional
[30] = Luminescence Cell-Based Dose Retest to Confirm Inhibitors of Cancer Stem Cells. [Related pubchem assays (depositor defined):AID2717, AID2721]; format: functional; conditions: Homo sapiens

Chain of Intestinal-type alkaline phosphatase (P09923 whole entry): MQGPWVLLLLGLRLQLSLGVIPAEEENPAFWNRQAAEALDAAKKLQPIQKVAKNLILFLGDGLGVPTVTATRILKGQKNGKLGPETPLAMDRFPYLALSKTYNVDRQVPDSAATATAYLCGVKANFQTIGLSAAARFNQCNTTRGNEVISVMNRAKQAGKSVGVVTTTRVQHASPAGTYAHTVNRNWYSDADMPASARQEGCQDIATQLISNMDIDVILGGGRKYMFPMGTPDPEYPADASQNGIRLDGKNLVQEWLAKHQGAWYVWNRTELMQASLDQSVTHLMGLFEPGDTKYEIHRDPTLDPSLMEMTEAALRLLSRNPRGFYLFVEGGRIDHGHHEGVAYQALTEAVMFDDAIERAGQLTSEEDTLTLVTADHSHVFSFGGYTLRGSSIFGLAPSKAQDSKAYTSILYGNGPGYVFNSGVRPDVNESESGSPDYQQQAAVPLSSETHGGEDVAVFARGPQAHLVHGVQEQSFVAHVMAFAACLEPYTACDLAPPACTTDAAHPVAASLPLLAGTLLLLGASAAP

## CCOC(=O)c1cnc(SCC(=O)c2ccccc2)nc1N
[1]
  IC50: > 100 µM (inactive)
[2]
  EC50: 0.195 µM (active)

## Fc1ccccc1/C=N/Nc1nc(-c2ccccn2)nc2ccccc12
[3]
  IC50: 6.19 µM (active)
[4]
  EC50: > 31.5 µM (inactive)
[5]
  IC50: > 32 µM
[6]
  EC50: 0.357 µM (active)
[7]
  AC50: 0.984 µM (active)
[8]
  EC50: 1.03 µM (active)
[9]
  EC50: 0.456 µM (active)
[10]
  EC50: 54.9 µM (active)

## Clc1c(OCCCn2ccnc2)ccc2ccccc12
[11]
  IC50: 9.76 µM (active)
[6]
  EC50: 0.708 µM (active)
[12]
  CC50: 37.1 µM (active)
[13]
  CC50: > 20 µM (active)
[10]
  EC50: > 60 µM (not active)

## Cc1noc(C)c1C(=O)NC(C)c1ccc2c(c1)OCO2 (stereo unspecified)
[14]
  IC50: > 50 µM (inactive)

## O=C(CN1C(=O)C2C3C=CC(C3)C2C1=O)NCCC1=CCCCC1 (stereo unspecified)
[14]
  IC50: > 50 µM (inactive)

## COC(=O)C1=CN(C(C)C)C=C(C(=O)OC)C1c1cc2c(cc1Br)OCO2
[15]
  IC50: 4.97 µM (active)

## c1ccc(OCCSc2nc3ccccc3[nH]2)cc1
[16]
  EC50: 5.96 µM (active)

## COC(=O)c1ccc(C(=O)OC)c(NC(=O)Nc2ccc3c(c2)OCO3)c1
[17]
  EC50: > 112 µM (not active)
[1]
  IC50: > 100 µM (inactive)
[18]
  EC50: > 112 µM (not active)

## CCCCCCCn1c(NC(=O)CC)nc2ccccc21
[19]
  AC50: 47.3 µM (active)
[20]
  EC50: 10.1 µM (active)
[21]
  EC50: 2.13 µM (active)
[22]
  IC50: 1.62 µM (active)
[23]
  IC50: 7.82 µM (active)
[24]
  AC50: > 70 µM (inactive)
[25]
  AC50: 34.3 µM (active)
[8]
  EC50: 13.8 µM (active)
[26]
  EC50: 11.4 µM (active)
[27]
  AC50: 39.4 µM (active)
[9]
  EC50: 9.8 µM (active)

## O=C(O)c1ccc2ncsc2c1
[28]
  IC50: 7.69 µM (active)

## Cc1ccc(NC(=O)c2cc(S(=O)(=O)N3CCCCC3)cs2)cc1
[16]
  EC50: 10.3 µM (active)

## COc1ccc(CNCCC(c2ccccc2)c2ccc3c(c2)OCO3)cc1 (stereo unspecified)
[6]
  EC50: 3.27 µM (active)
[15]
  IC50: 0.965 µM (active)
[7]
  AC50: 9.28 µM (active)
[10]
  EC50: > 60 µM (not active)

## N#CCc1ccc(NC(=O)Nc2cccc(Cl)c2)cc1
[29]
  EC50: > 10 µM (not active)
[30]
  AC50: 5.19 µM (active)

Reference: ChEMBL document CHEMBL1201862, “PubChem BioAssay data set” (2004)
